One test addresses T1, REV-ERBβ (Homo sapiens, UniProt Q14995).
T1 construct: 6×Histag-REV-ERBα LBD (human; residues 381-579); made in house; host or cells: Escherichia coli
T1 sequence (Q14995 381-579): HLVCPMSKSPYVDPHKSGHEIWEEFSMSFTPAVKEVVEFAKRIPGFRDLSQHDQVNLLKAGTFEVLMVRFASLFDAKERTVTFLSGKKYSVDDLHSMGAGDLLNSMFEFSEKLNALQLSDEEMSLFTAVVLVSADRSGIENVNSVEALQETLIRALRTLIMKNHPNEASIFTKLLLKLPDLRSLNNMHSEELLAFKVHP
Description: TR-FRET corepressor interaction assay (REV-ERBβ, FITC-SMRT peptide). The test is classed as biochemical. The note with it: Table 2, read-out: REVERBβ agonism (EC50 class, FRET assay). How it is done: TR-FRET corepressor interaction assay. The time-resolved fluorescence resonance energy transfer (TR-FRET) assay was performed in black low-volume 384-well plates (Greiner). […] Ligand stocks were prepared via serial dilution in DMSO, added to wells in triplicate, and plates were incubated at 4° C. for 2 h and read using a BioTek Synergy Neo multimode plate reader. The Tb donor was excited at 340 nm; its fluorescence emission was monitored at 495 nm, and the acceptor FITC emission was measured at 520 nm; and the TR-FRET ratio was calculated as the signal at 520 nm divided by the signal at 495 nm. Data were plotted using GraphPad Prism as TR-FRET ratio vs. ligand concentration and fit to sigmoidal dose response curve equation.
Exemplary compounds of the present disclosure were assayed as described above to assess agonism of REV-ERBα and REV-ERBβ.
A general note: TR-FRET usually uses a lanthanide donor and a delayed reading to cut background.

Test [1] concerns the target T2, REV-ERBα LBD (human; residues 281-614 Δ324-422) (Homo sapiens, UniProt P20393, DEL324-422).
T2 construct: 6×Histag-REV-ERBα LBD (human; residues 281-614 Δ324-422); made in house; host or cells: Escherichia coli
Description: TR-FRET corepressor interaction assay (REV-ERBα LBD, FITC-SMRT peptide). The note with it: Table 2, read-out: REVERBα agonism (EC50 class, FRET assay). Type of test: biochemical. In a few lines:
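Compound serial dilutions (in DMSO, triplicate) incubated 2 h at 4 °C; Tb donor excited at 340 nm, emission read at 495 nm and FITC acceptor at 520 nm. TR-FRET ratio (520/495 nm) plotted against ligand concentration and fitted to a sigmoidal dose-response curve.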

T2 sequence (P20393 with tags, fused parts or gaps DEL324-422): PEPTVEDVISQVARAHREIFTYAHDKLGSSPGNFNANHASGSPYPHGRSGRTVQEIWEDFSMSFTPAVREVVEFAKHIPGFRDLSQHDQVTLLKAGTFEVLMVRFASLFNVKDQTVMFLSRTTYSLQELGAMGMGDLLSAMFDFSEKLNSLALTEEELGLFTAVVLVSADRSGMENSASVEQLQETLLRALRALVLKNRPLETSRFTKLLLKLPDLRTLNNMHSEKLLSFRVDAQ
T2 sequence (Q9Y618 2335-2356 partner limits assumed): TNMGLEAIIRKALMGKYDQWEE

Turning to `CC(C)Cn1cc([C@H](NS(=O)(=O)C2CC2)C(F)(F)F)c2cc(F)c(-c3ccccc3C(F)(F)F)cc21` [Example 313, (S)—N-(2,2,2-trifluoro-1-(5-fluoro-1-isobutyl-6-(2-(trifluoromethyl)phenyl)-1H-indol-3-yl)ethyl)cyclopropanesulfonamide], the values for the concentration giving a half-maximal response (EC50) (on REV-ERBβ; in test [1]) were over 3000 nM and under 500 nM, respectively.
For `CC(C)Cn1cc(CCNS(=O)(=O)N(C)C)c2ccc(-c3ncccn3)cc21` [Compound 32, dimethyl({2-[1-(2-methylpropyl)-6-(pyrimidin-2-yl)-1H-indol-3-yl]ethyl}sulfamoyl)amine] the same measures were over 3000 nM and 500 to 3000 nM.
For `CC(C)CCn1cc(CCNS(=O)(=O)N(C)C)c2ccc(-c3ccncc3)cc21` [Compound 231] the same measures were 500 to 3000 nM and under 500 nM.
For `Cc1ccc2c(c1)c(CC(C)(C)C)cn2CCNS(=O)(=O)C1CC1` [Example 296, N-(2-(5-methyl-3-neopentyl-1H-indol-1-yl)ethyl)cyclopropanesulfonamide] the same measures were over 3000 nM and 500 to 3000 nM.
With `CC(C)Cn1cc(CCNS(=O)(=O)N(C)C)c2ccc(-c3ccnc4ccccc34)cc21` [Compound 37, dimethyl({2-[1-(2-methylpropyl)-6-(quinolin-4-yl)-1H-indol-3-yl]ethyl}sulfamoyl)amine], the figures for the concentration giving a half-maximal response (EC50) (on REV-ERBβ; in test [1]) were 500 to 3000 nM and under 500 nM, respectively.
For `CC(C)(C)Cc1cn(CCNS(=O)(=O)C2CC2)c2ccc(-c3ccc(C(F)(F)F)cc3Cl)cc12` [Example 300, N-(2-(5-(2-chloro-4-(trifluoromethyl)phenyl)-3-neopentyl-1H-indol-1-yl)ethyl) cyclopropanesulfonamide] the same measures were 500 to 3000 nM and under 500 nM.
On the same counts, the results for `CN(C)S(=O)(=O)N[C@@H](c1cn(CC(C)(C)C)c2cc(C3CC3)c(F)cc12)C(F)(F)F` [Example 328, {[(1S)-1-[6-cyclopropyl-1-(2,2-dimethylpropyl)-5-fluoro-1H-indol-3-yl]-2,2,2-trifluoroethyl]sulfamoyl}dimethylamine] are over 3000 nM and under 500 nM.
For `CC(C)Cn1cc(CCNS(=O)(=O)N(C)C)c2ccc(-c3ccccn3)cc21` [Compound 31, dimethyl({2-[1-(2-methylpropyl)-6-(pyridin-2-yl)-1H-indol-3-yl]ethyl}sulfamoyl)amine] the same measures were over 3000 nM and 500 to 3000 nM.
As to `CC(C)(C)Cn1cc([C@H](NS(=O)(=O)C2CC2)C(F)(F)F)c2ccc(-c3ccccc3C(F)(F)F)cc21` [Example 322, (S)—N-(2,2,2-trifluoro-1-(1-neopentyl-6-(2-(trifluoromethyl)phenyl)-1H-indol-3-yl)ethyl)cyclopropanesulfonamide], the 50% effective concentration (EC50) (in general, the concentration giving half of the maximal effect) on REV-ERBβ was 500 to 3000 nM; in test [1], under 500 nM.
For `CC(C)Cn1cc(CCNS(=O)(=O)N(C)C)c2ccc(C3CCCCC3)cc21` [Compound 16] the same measures were 500 to 3000 nM and under 500 nM.
With `CC(C)Cn1cc(CCNS(=O)(=O)N(C)C)c2ccc(-c3cncnc3)cc21` [Compound 29, dimethyl({2-[1-(2-methylpropyl)-6-(pyrimidin-5-yl)-1H-indol-3-yl]ethyl}sulfamoyl)amine], the 50% effective concentration (EC50) is over 3000 nM at REV-ERBβ and 500 to 3000 nM in test [1].
For `CC(C)Cn1cc(CCNS(=O)(=O)N(C)C)c2ccc(-c3cnn(C)c3)cc21` [Compound 33, dimethyl({2-[6-(1-methyl-1H-pyrazol-4-yl)-1-(2-methylpropyl)-1H-indol-3-yl]ethyl}sulfamoyl)amine] the same measures were over 3000 nM and over 3000 nM.
As to `Cc1c(-c2ccncc2)ccc2c(CCNS(=O)(=O)N(C)C)cn(C(=O)C(C)C)c12` [Example 199, 1-(3-{2-[(dimethylsulfamoyl)amino]ethyl}-7-methyl-6-(pyridin-4-yl)-1H-indol-1-yl)-2-methylpropan-1-one], the EC50 on REV-ERBβ is 500 to 3000 nM; in test [1], under 500 nM.
For `Cc1cc2c(CCNS(=O)(=O)N(C)C)cn(CC(C)C)c2cc1C` [Example 120, ({2-[5,6-dimethyl-1-(2-methylpropyl)-1H-indol-3-yl]ethyl}sulfamoyl)dimethylamine] the same measures were over 3000 nM and under 500 nM.
On to `CC(C)(C)Cn1cc(CNS(=O)(=O)C2CC2)c2cc(F)c(-c3ccncc3Cl)cc21` [Compound 279], for which the values for the EC50 (at REV-ERBβ; in test [1]) were over 3000 nM and under 500 nM, respectively.
For `CC(C)Cn1cc([C@H](NS(=O)(=O)N(C)C)C(F)(F)F)c2cc(F)c(C3CC3)cc21` [Example 329, {[(1S)-1-[6-cyclopropyl-5-fluoro-1-(2-methylpropyl)-1H-indol-3-yl]-2,2,2-trifluoroethyl]sulfamoyl}dimethylamine] the same measures were over 3000 nM and under 500 nM.
Take `CCCc1ccc2c(CCNS(=O)(=O)N(C)C)cn(CC(C)C)c2c1` [Compound 98, dimethyl({2-[1-(2-methylpropyl)-6-propyl-1H-indol-3-yl]ethyl}sulfamoyl)amine]: the EC50 on REV-ERBβ is over 3000 nM; in test [1], under 500 nM.
For `CC(C)Cn1cc(CCNS(=O)(=O)N(C)C)c2cccc(Br)c21` [Example 137, ({2-[7-bromo-1-(2-methylpropyl)-1H-indol-3-yl]ethyl}sulfamoyl)dimethylamine] the same measures were over 3000 nM and 500 to 3000 nM.
On the same counts, the results for `CC(C)(C)Cc1cn(CCNS(=O)(=O)C2CC2)c2ccc(-c3cccc(F)c3C(F)(F)F)cc12` [Example 227, N-(2-(5-(3-fluoro-2-(trifluoromethyl)phenyl)-3-neopentyl-1H-indol-1-yl)ethyl) cyclopropanesulfonamide] are 500 to 3000 nM and under 500 nM.
For `CC(C)Cn1cc(CCNS(=O)(=O)C2CCCC2)c2ccc(-c3ccncc3)cc21` [Compound 11] the same measures were over 3000 nM and under 500 nM.
As for `CC(C)Cn1cc(CCNS(=O)(=O)N(C)C)c2ccc(-c3ccnc(N)c3)cc21` [Compound 21], the concentration for a half-maximal effect (EC50) at REV-ERBβ is over 3000 nM; in test [1], 500 to 3000 nM.
On the same counts, the results for `CC(C)C(=O)n1cc(C(C)NS(=O)(=O)N(C)C)c2ccc(-c3ccccc3C(F)(F)F)cc21` (stereo not shown) [Example 195, 1-(3-{1-[(dimethylsulfamoyl)amino]ethyl}-6-[2-(trifluoromethyl)phenyl]-1H-indol-1-yl)-2-methylpropan-1-one] are 500 to 3000 nM and under 500 nM.
For `CC(C)Cn1cc([C@H](NS(=O)(=O)C2CC2)C(F)(F)F)c2ccc(C3CC3)cc21` [Example 310, (S)—N-(1-(6-cyclopropyl-1-isobutyl-1H-indol-3-yl)-2,2,2-trifluoroethyl)cyclopropanesulfonamide] the same measures were 500 to 3000 nM and under 500 nM.
On the same counts, the results for `CC(C)(C)Cc1cn(CCNS(=O)(=O)C2CC2)c2ccc(-c3ccc(C(F)(F)F)cc3C(F)(F)F)cc12` [Example 299, N-(2-(5-(2,4-bis(trifluoromethyl)phenyl)-3-neopentyl-1H-indol-1-yl)ethyl)cyclo-propanesulfonamide] are 500 to 3000 nM and under 500 nM.
For `CC(C)(C)Cc1cn(CCNS(=O)(=O)C2CC2)c2ccc(-c3ccc(F)cc3C(F)(F)F)cc12` [Example 301, N-(2-(5-(4-fluoro-2-(trifluoromethyl)phenyl)-3-neopentyl-1H-indol-1-yl)ethyl) cyclopropanesulfonamide], the half-maximal effective concentration (EC50) at REV-ERBβ was 500 to 3000 nM; in test [1] it was under 500 nM.
For `CC(C)c1ccc2c([C@H](NS(=O)(=O)N(C)C)C(F)(F)F)cn(CC(C)(C)C)c2c1` [Example 340, {[(1S)-1-[1-(2,2-dimethylpropyl)-6-(propan-2-yl)-1H-indol-3-yl]-2,2,2-trifluoroethyl]sulfamoyl}dimethylamine] the same measures were 500 to 3000 nM and under 500 nM.
In the case of `CC(C)Cn1cc(CCNS(=O)(=O)N(C)C)c2ccc(-c3cn[nH]c3)cc21` [Compound 35, dimethyl({2-[1-(2-methylpropyl)-6-(1H-pyrazol-4-yl)-1H-indol-3-yl]ethyl}sulfamoyl)amine], the concentration for a half-maximal effect (EC50) is over 3000 nM on REV-ERBβ and under 500 nM in test [1].
For `CC(C)Cn1cc(CCNS(=O)(=O)N(C)C)c2ccc(-c3cccc4cnccc34)cc21` [Compound 38, ({2-[6-(isoquinolin-5-yl)-1-(2-methylpropyl)-1H-indol-3-yl]ethyl}sulfamoyl)dimethylamine] the same measures were over 3000 nM and over 3000 nM.
For `CC(C)Cn1cc(CCNS(=O)(=O)C(C)C)c2cc(F)c(-c3ccncc3Cl)cc21` [Compound 263] the same measures were over 3000 nM and under 500 nM.
